# Source: US20230391714A1, “INHIBITORS OF THE INTERACTION BETWEEN TRIP8B AND HCN CHANNELS AND USES THEREOF FOR TREATING NEUROLOGICAL DISEASES AND DISORDERS” (Northwestern University, priority 2022, published 2023)
# Target: TRIP8b-HCN1c40 (Homo sapiens (Human), UniProt Q8IYB4)
# Test: TRIP8b-HCN1c40 AlphaScreen assay
# Format: binding
# Conditions: activity ranges; read-out: TRIP8b-HCN1c40 Alphascreen IC50 activity
# Procedure: AlphaScreen Assay. 20 nM ofGST-tagged HCNlc40 protein (corresponding to the C terminal 40 amino acids of HCN1) was incubated with 200 nM of His-tagged TRIP8b(241-602) and varying concentrations of the test compound as described in our prior report (Han et al., 2015). After a 3 h incubation, anti-GST AlphaScreen acceptor beads were added for 1.5 h followed by AlphaScreen nickel chelate donor beads for 1.5 h. AlphaScreen signal was quantified using a PerkinElmer (Waltham, MA) EnSpire multimode plate reader.
# TRIP8b-HCN1c40, sequence (Q8IYB4 265-626): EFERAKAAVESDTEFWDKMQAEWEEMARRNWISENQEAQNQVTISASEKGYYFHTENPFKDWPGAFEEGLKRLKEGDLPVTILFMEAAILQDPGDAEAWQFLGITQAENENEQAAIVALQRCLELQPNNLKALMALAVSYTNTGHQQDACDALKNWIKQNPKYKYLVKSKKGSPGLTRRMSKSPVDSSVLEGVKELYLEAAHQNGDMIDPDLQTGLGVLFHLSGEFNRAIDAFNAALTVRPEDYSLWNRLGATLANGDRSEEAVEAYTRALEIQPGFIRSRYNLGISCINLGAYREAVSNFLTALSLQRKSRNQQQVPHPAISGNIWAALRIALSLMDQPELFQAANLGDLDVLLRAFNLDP
row,IC50,Compound
1,1 to 2 µM,CN1CCN(Cc2ccc(-c3ccc(Cl)c(Cl)c3)cc2OCC(=O)NCc2ccc(Cl)cc2)CC1 [NUCC-0202008]
2,< 1 µM,CN1CCN(Cc2cc(-c3cc(Cl)cc(Cl)c3)ccc2OCC(=O)NCc2ccc(Cl)c(Cl)c2)CC1 [NUCC-0201979]
3,1 to 2 µM,CN1CCN(Cc2cc(-c3ccc(N)cc3)ccc2OCC(=O)Nc2ccc(Cl)c(Cl)c2)CC1 [NUCC-0202020]
4,< 1 µM,CN1CCN(Cc2cc(-c3ccc(Cl)cc3Cl)ccc2OCC(=O)NCc2ccc(Cl)cc2)CC1 [NUCC-0202054]
5,5 to 10 µM,CN1CCN(Cc2cc(-c3ccc(CCl)cc3)ccc2OCC(=O)NCc2ccc(Cl)c(Cl)c2)CC1 [NUCC-0201971]
6,< 1 µM,CN1CCN(Cc2cc(-c3ccc(Cl)c(Cl)c3)ccc2OCC(=O)Nc2ccc(Cl)c(Cl)c2)CC1 [NUCC-0202002]
7,< 1 µM,CN1CCN(Cc2cc(-c3ccc(Cl)c(Cl)c3)ccc2OCC(=O)Nc2ccc3ncsc3c2)CC1 [NUCC-0202014]
8,1 to 2 µM,CC(Oc1ccc(-c2ccc(Cl)cc2)cc1CN1CCN(C)CC1)C(=O)NCc1ccc(Cl)cc1 (stereo not drawn) [NUCC-0202025]
9,< 1 µM,CN1CCN(Cc2cc(-c3ccc(Cl)c(Cl)c3)ccc2OCCNCc2ccc(Cl)cc2)CC1 [NUCC-0201976]
10,< 1 µM,CN1CCN(Cc2cc(-c3ccc(Cl)c(Cl)c3)ccc2OCC(=O)N2CCc3cc(Cl)c(Cl)cc32)CC1 [NUCC-0201991]
11,< 1 µM,Cc1cccc(-c2ccc(OCC(=O)Nc3ccc(Cl)c(Cl)c3)c(CN3CCN(C)CC3)c2)c1 [NUCC-0202000]
12,1 to 2 µM,CN1CCN(Cc2cc(-c3ccc(Cl)c(Cl)c3)ccc2OCC(=O)NCc2ccc(Cl)cc2)CC1 [NUCC-0201973]
13,< 1 µM,Cc1ccc(C(C)NC(=O)C(C)Oc2ccc(-c3cc(Cl)cc(-c4cc(Cl)cc(Cl)c4)c3)cc2CN2CCN(C)CC2)cc1 (stereo not drawn) [NUCC-0202050]
14,< 1 µM,CN1CCN(Cc2cc(-c3ccc(Cl)cc3Cl)ccc2OCC(=O)Nc2ccc(Cl)c(Cl)c2)CC1 [NUCC-0202001]

# Second part, the compound before the results:
row,Compound,IC50
1,Cc1ccc(-c2ccc(OCC(=O)NCc3ccc(Cl)cc3)c(CN3CCOCC3)c2)cc1 [NUCC-0201604],5 to 10 µM
2,CC(C)c1ccc(-c2ccc(OCC(=O)NCc3ccc(Cl)cc3)c(CN3CCNCC3)c2)cc1 [NUCC-0201616],5 to 10 µM
3,CNC(=O)c1ccc(NC(=O)COc2ccc(-c3cccc(C)c3)cc2CN2CC[C@H](N)C2)cc1 [NUCC-0201623],20 to 40 µM
4,CC(C)(C)c1ccc(-c2ccc(OCC(=O)NCc3ccc(Cl)cc3)c(CN3CCNCC3)c2)cc1 [NUCC-0201615],5 to 10 µM
5,CN1CCN(Cc2cc(-c3ccncc3)ccc2OCC(=O)Nc2ccc(Cl)c(Cl)c2)CC1 [NUCC-0202006],5 to 10 µM
6,CN1CCN(Cc2cc(-c3ccc(CO)cc3)ccc2OCC(=O)Nc2ccc(Cl)c(Cl)c2)CC1 [NUCC-0202024],2 to 5 µM
7,CN1CCN(Cc2cc(-c3ccc(F)c(C(F)(F)F)c3)ccc2OCC(=O)NCc2ccc(Cl)cc2)CC1 [NUCC-0201709],2 to 5 µM
8,CN1CCN(Cc2cc(-c3ccc(Cl)c(Cl)c3)ccc2OCC(=O)NCCc2ccc(C#N)cc2)CC1 [NUCC-0201994],2 to 5 µM
9,CN1CCN(Cc2ccc(-c3ccc(F)cc3)cc2OCC(=O)NCc2ccc(Cl)cc2)CC1 [NUCC-0202010],5 to 10 µM

# Same assay, conditions: read-out: TRIP8b-HCN1c40 Alphascreen IC50
row,IC50,Compound
1,5.3 µM,CN1CCN(Cc2cc(-c3ccc(Cl)c(Cl)c3)ccc2OCC(=O)NCc2ccc(C#N)cc2)CC1 [NUCC-0201984]
2,5 µM,CN1CCN(Cc2cc(-c3ccc(Cl)cc3)ccc2OCC(=O)NCc2ccc(Cl)cc2)CC1 [NUCC-0201972]
3,1.2 µM,CN1CCN(Cc2ccc(-c3ccc(Cl)c(Cl)c3)cc2OCC(=O)NCc2ccc(Cl)cc2)CC1 [NUCC-0202008]
4,< 0.74 µM,CN1CCN(Cc2cc(-c3cc(Cl)cc(Cl)c3)ccc2OCC(=O)NCc2ccc(Cl)c(Cl)c2)CC1 [NUCC-0201979]
5,1.5 µM,CN1CCN(Cc2cc(-c3ccc(N)cc3)ccc2OCC(=O)Nc2ccc(Cl)c(Cl)c2)CC1 [NUCC-0202020]
6,< 0.74 µM,CN1CCN(Cc2cc(-c3ccc(Cl)cc3Cl)ccc2OCC(=O)NCc2ccc(Cl)cc2)CC1 [NUCC-0202054]
7,6.6 µM,CN1CCN(Cc2cc(-c3ccc(CCl)cc3)ccc2OCC(=O)NCc2ccc(Cl)c(Cl)c2)CC1 [NUCC-0201971]
8,< 0.74 µM,CN1CCN(Cc2cc(-c3ccc(Cl)c(Cl)c3)ccc2OCC(=O)Nc2ccc(Cl)c(Cl)c2)CC1 [NUCC-0202002]
9,< 0.74 µM,CN1CCN(Cc2cc(-c3ccc(Cl)c(Cl)c3)ccc2OCC(=O)NCc2ccc(Cl)cc2)CC1 [NUCC-0201708]
10,0.81 µM,CN1CCN(Cc2cc(-c3ccc(Cl)c(Cl)c3)ccc2OCC(=O)Nc2ccc3ncsc3c2)CC1 [NUCC-0202014]
11,1.5 µM,CC(Oc1ccc(-c2ccc(Cl)cc2)cc1CN1CCN(C)CC1)C(=O)NCc1ccc(Cl)cc1 (stereo not drawn) [NUCC-0202025]
12,0.83 µM,CN1CCN(Cc2cc(-c3ccc(Cl)c(Cl)c3)ccc2OCCNCc2ccc(Cl)cc2)CC1 [NUCC-0201976]
13,< 0.74 µM,CN1CCN(Cc2cc(-c3ccc(Cl)c(Cl)c3)ccc2OCC(=O)N2CCc3cc(Cl)c(Cl)cc32)CC1 [NUCC-0201991]
14,0.76 µM,Cc1cccc(-c2ccc(OCC(=O)Nc3ccc(Cl)c(Cl)c3)c(CN3CCN(C)CC3)c2)c1 [NUCC-0202000]
15,1.3 µM,CN1CCN(Cc2cc(-c3ccc(Cl)c(Cl)c3)ccc2OCC(=O)NCc2ccc(Cl)cc2)CC1 [NUCC-0201973]
16,< 0.74 µM,Cc1ccc(C(C)NC(=O)C(C)Oc2ccc(-c3cc(Cl)cc(-c4cc(Cl)cc(Cl)c4)c3)cc2CN2CCN(C)CC2)cc1 (stereo not drawn) [NUCC-0202050]
17,< 0.74 µM,CN1CCN(Cc2cc(-c3c(Cl)cc(Cl)cc3Cl)ccc2OCC(=O)NCc2ccc(Cl)cc2)CC1 [NUCC-0201970]
18,< 0.74 µM,CN1CCN(Cc2cc(-c3ccc(Cl)cc3Cl)ccc2OCC(=O)Nc2ccc(Cl)c(Cl)c2)CC1 [NUCC-0202001]

# Continued, compound first:
row,Compound,IC50
1,CN1CCN(Cc2cc(-c3ccc(F)cc3)ccc2OCC(=O)NCCN2CCCCC2)CC1 [NUCC-0201230],> 200 µM
2,Cc1cccc(-c2ccc(OCC(=O)NCc3cccnc3)c(CN3CC[C@H](N)C3)c2)c1 [NUCC-0201626],> 40 µM
3,CCN(CCO)Cc1cc(-c2ccc(C)cc2)ccc1OCC(=O)NCc1ccc(O)cc1 [NUCC-0201605],35 µM
4,Cc1ccc(-c2ccc(OCC(=O)NCc3ccc(Cl)cc3)c(CN3CCOCC3)c2)cc1 [NUCC-0201604],8.1 µM
5,CC(C)c1ccc(-c2ccc(OCC(=O)NCc3ccc(Cl)cc3)c(CN3CCNCC3)c2)cc1 [NUCC-0201616],5.7 µM
6,CNC(=O)c1ccc(NC(=O)COc2ccc(-c3cccc(C)c3)cc2CN2CC[C@H](N)C2)cc1 [NUCC-0201623],22 µM
7,CC(C)(C)c1ccc(-c2ccc(OCC(=O)NCc3ccc(Cl)cc3)c(CN3CCNCC3)c2)cc1 [NUCC-0201615],6.3 µM
8,COc1ccc([C@H](C)NC(=O)COc2ccc(-c3ccc(C)cc3)cc2CN2CCC(N(C)C)CC2)cc1 [NUCC-0201611],> 40 µM
9,CN1CCN(Cc2cc(-c3ccncc3)ccc2OCC(=O)Nc2ccc(Cl)c(Cl)c2)CC1 [NUCC-0202006],5.3 µM
10,CN1CCN(Cc2cc(-c3ccc(CO)cc3)ccc2OCC(=O)Nc2ccc(Cl)c(Cl)c2)CC1 [NUCC-0202024],3.2 µM
11,CN1CCN(Cc2cc(-c3ccc(F)c(C(F)(F)F)c3)ccc2OCC(=O)NCc2ccc(Cl)cc2)CC1 [NUCC-0201709],2.8 µM
12,CN1CCN(Cc2cc(-c3ccc(Cl)c(Cl)c3)ccc2OCC(=O)NCCc2ccc(C#N)cc2)CC1 [NUCC-0201994],3.4 µM
13,CN1CCN(Cc2ccc(-c3ccc(F)cc3)cc2OCC(=O)NCc2ccc(Cl)cc2)CC1 [NUCC-0202010],5.7 µM
